US20210041443A1, “WNT6 AS GLIOBLASTOMA ONCOGENIC BIOMARKER, AND USES OF INHIBITORS THEREOF” (UNIVERSIDADE DO MINHO, priority 2018, published 2021)

Tests used:
Experiment in all cases: Cell viability of GBM cells exposed to WNT974
[1] = test system: SNB19 cells (WNT6-positive GBM); assay type: cell-based, human
Protocol: (§1) FIG. 13. WNT6-positive GBM cell lines are more sensitive to WNT974 (an inhibitor of the WNT pathway) than a WNT6-negative GBM cell line. A. GBM cells positive to WNT6 (U373, […], and GL42) and negative to WNT6 (U87) were exposed to increasing doses of WNT974 (0, 10, 20, or 30 μM). The viability of U87 cells (WNT6-negative) was not affected by WNT inhibition, in contrast to WNT6-positive GBM cells (U373, SNB19, and GL42) that are highly-sensitive. B. Cells were exposed to increasing doses of WNT974 (0, 10, 20, or 30 μM) and to a fixed dose of TMZ (temozolomide, the gold standard chemotherapeutic drug used for GBM patients; U373: 400 μM; SNB19: 800 μM; GL42: 200 μM; U87: 800 μM).

[2] = test system: U373 cells (WNT6-positive GBM); assay type: cell-based, human
Protocol: as §1

[3] = test system: U87 cells (WNT6-negative GBM); assay type: cell-based, human
Protocol: as §1

[4] = test system: GL42 cells (WNT6-positive GBM); assay type: cell-based
Protocol: as §1

Cc1cc(-c2ncc(CC(=O)Nc3ccc(-c4cnccn4)cn3)cc2C)ccn1 [WNT974]
cell viability, sensitivity to WNT inhibition ([1]; SNB19 (WNT6-positive), WNT974 0, 10, 20, or 30 μM): highly-sensitive
cell viability, sensitivity to combinatorial therapy ([1]; SNB19, WNT974 0, 10, 20, or 30 μM plus fixed dose TMZ 800 μM): higher sensitivity
cell viability, sensitivity to WNT inhibition ([2]; U373 (WNT6-positive), WNT974 0, 10, 20, or 30 μM): highly-sensitive
cell viability, sensitivity to combinatorial therapy ([2]; U373, WNT974 0, 10, 20, or 30 μM plus fixed dose TMZ 400 μM): higher sensitivity
cell viability, sensitivity to WNT inhibition ([3]; U87 (WNT6-negative), WNT974 0, 10, 20, or 30 μM): not affected
cell viability, sensitivity to combinatorial therapy ([3]; U87, WNT974 0, 10, 20, or 30 μM plus fixed dose TMZ 800 μM): no effect
cell viability, sensitivity to WNT inhibition ([4]; GL42 (WNT6-positive), WNT974 0, 10, 20, or 30 μM): highly-sensitive
cell viability, sensitivity to combinatorial therapy ([4]; GL42, WNT974 0, 10, 20, or 30 μM plus fixed dose TMZ 200 μM): higher sensitivity
